We go through 30 substances from US9976141B2, “Compositions and methods for inhibiting gene expression of Hif2alpha” (Arrowhead Madison Inc., priority 2015, dated 2018).

Strand notation (5' to 3'): a small letter for the sugar, then the base; units joined by * are phosphorothioate-linked, units joined directly phosphodiester-linked; [ ] holds rarer units or linkages, { } end groups; capitals alone tell only the bases. d = 2'-deoxy (DNA); m = 2'-O-methyl; f = 2'-fluoro

The subject of the series is human EPAS1 (Hif2α) cDNA in psiCHECK2 (Renilla luciferase/EPAS1 fusion mRNA) in Hep3B cells. Kind of series: Efficacy screen of Hif2α RNAi triggers in vitro, dual-luciferase reporter assay (1 nM and 0.1 nM). It counts as cell-based. The note with it: Hep3B cells co-transfected with EPAS1-psiCHECK2, Renilla luciferase normalized to firefly luciferase. An excerpt: Candidate sequences were identified by in silico analysis and screened as chemically modified canonical siRNAs in vitro. For screening purposes, the human EPAS1 (Hif2α) cDNA sequence (accession #NM 001430) was synthesized and cloned (DNA 2.0, Menlo Park, Calif.) into a commercially-available reporter-based screening plasmid, psiCHECK2 (Promega, Madison, Wis.) which generated a Renilla luciferase/EPAS1 fusion mRNA. For RNAi trigger efficacy evaluation, Hep3B cells, a human hepatocellular carcinoma line, were plated at 10,000 cells per well in 96-well format. Each of the 187 EPAS1 RNAi triggers, in two subsets, was co-transfected at two concentrations, 1 nM and 0.1 nM, with 25 ng EPAS1-psiCHECK2 plasmid DNA per well and 0.2 μL LipoFectamine 2000 (Life Technologies) per well. Gene knockdown was determined by measuring Renilla luciferase levels normalized to the levels of constitutively-expressed firefly luciferase, also present on the psiCHECK-2 plasmid, using the Dual Luciferase Reporter Assay (Promega, Madison, Wis.) Table 5.

“2291 (sense fUmCfGmGfGmAfAmUfCmAfGmAfAmCfUmUfCmGfAdT; antisense dTfCmGfAmAfGmUfUmCfUmGfAmUfUmCfCmCfGmAdT*dT; siRNA) [compound 2291]”: the “Relative Rluc-Hif2α” value is, setting by setting: (0.1 nM RNAi trigger) 0.911 ± 0.092; (1 nM RNAi trigger) 0.434 ± 0.046.
With “2292 (sense fCmUfGmCfUmCfCmAfCmGfCmCfCmAfAmUfAmGfAdT; antisense dTfCmUfAmUfUmGfGmGfCmGfUmGfGmAfGmCfAmGdT*dT; siRNA) [compound 2292]”, the “Relative Rluc-Hif2α” value runs as follows: (0.1 nM RNAi trigger) 1.135 ± 0.048; (1 nM RNAi trigger) 0.832 ± 0.000.
For the substance “2293 (sense fUmGfCmUfCmCfAmCfGmCfCmCfAmAfUmAfGmCfAdT; antisense dTfGmCfUmAfUmUfGmGfGmCfGmUfGmGfAmGfCmAdT*dT; siRNA) [compound 2293]”, the “Relative Rluc-Hif2α” value came to 1.010 ± 0.045 (0.1 nM RNAi trigger) and 0.925 ± 0.126 (1 nM RNAi trigger).
Taken in the same sequence, the figures for “2294 (sense fGmCfUmCfCmAfCmGfCmCfCmAfAmUfAmGfCmCfAdT; antisense dTfGmGfCmUfAmUfUmGfGmGfCmGfUmGfGmAfGmCdT*dT; siRNA) [compound 2294]” were 0.743 ± 0.100 and 0.546 ± 0.033.
Regarding “2295 (sense fAmCfGmCfCmCfAmAfUmAfGmCfCmCfUmGfAmAfAdT; antisense dTfUmUfCmAfGmGfGmCfUmAfUmUfGmGfGmCfGmUdT*dT; siRNA) [compound 2295]”, the “Relative Rluc-Hif2α” value (0.1 nM RNAi trigger) is listed as 1.047 ± 0.184 and the “Relative Rluc-Hif2α” value (1 nM RNAi trigger) came out at 0.863 ± 0.122.
The like results for “2296 (sense fCmAfUmCfUmUfUmGfGmAfUmAfAmCfGmAfCmCfAdT; antisense dTfGmGfUmCfGmUfUmAfUmCfCmAfAmAfGmAfUmGdT*dT; siRNA) [compound 2296]” were, in that order, 0.411 ± 0.079 and 0.213 ± 0.028.
The like results for “2297 (sense fCmAfAmUfGmCfAmGfUmAfCmCfCmAfGmAfCmGfAdT; antisense dTfCmGfUmCfUmGfGmGfUmAfCmUfGmCfAmUfUmGdT*dT; siRNA) [compound 2297]” were, in that order, 0.704 ± 0.083 and 0.643 ± 0.028.
The like results for “2298 (sense fAmUfGmCfAmGfUmAfCmCfCmAfGmAfCmGfGmAfAdT; antisense dTfUmCfCmGfUmCfUmGfGmGfUmAfCmUfGmCfAmUdT*dT; siRNA) [compound 2298]” were, in that order, 0.729 ± 0.092 and 0.695 ± 0.037.
“2299 (sense fAmGfUmAfCmCfCmAfGmAfCmGfGmAfUmUfUmCfAdT; antisense dTfGmAfAmAfUmCfCmGfUmCfUmGfGmGfUmAfCmUdT*dT; siRNA) [compound 2299]”: the “Relative Rluc-Hif2α” value (0.1 nM RNAi trigger) turned out to be 0.907 ± 0.171 and the “Relative Rluc-Hif2α” value (1 nM RNAi trigger) amounted to 0.827 ± 0.067.
With “2300 (sense fCmUfGmUfAmGfCmCfCmCfGmCfAmCfAmGfUmCfAdT; antisense dTfGmAfCmUfGmUfGmCfGmGfGmGfCmUfAmCfAmGdT*dT; siRNA) [compound 2300]”, the “Relative Rluc-Hif2α” value is 1.090 ± 0.106 (0.1 nM RNAi trigger) and 0.786 ± 0.181 (1 nM RNAi trigger).
Regarding “2301 (sense fAmUfCmUfUmCfUmUfUmGfAmUfGmCfCmGfGmAfAdT; antisense dTfUmCfCmGfGmCfAmUfCmAfAmAfGmAfAmGfAmUdT*dT; siRNA) [compound 2301]”, the “Relative Rluc-Hif2α” value (0.1 nM RNAi trigger) worked out at 0.558 ± 0.034 and the “Relative Rluc-Hif2α” value (1 nM RNAi trigger) worked out at 0.423 ± 0.102.
As for “2302 (sense fCmUfUmUfGmAfUmGfCmCfGmGfAmAfGmCfAmAfAdT; antisense dTfUmUfGmCfUmUfCmCfGmGfCmAfUmCfAmAfAmGdT*dT; siRNA) [compound 2302]”, the “Relative Rluc-Hif2α” value is, setting by setting: (0.1 nM RNAi trigger) 0.414 ± 0.019; (1 nM RNAi trigger) 0.147 ± 0.028.
The like results for “2303 (sense fGmAfUmGfCmCfGmGfAmAfGmCfAmAfAmGfCmAfAdT; antisense dTfUmGfCmUfUmUfGmCfUmUfCmCfGmGfCmAfUmCdT*dT; siRNA) [compound 2303]” were, in that order, 0.414 ± 0.002 and 0.294 ± 0.034.
As for “2304 (sense fAmUfGmCfCmGfGmAfAmGfCmAfAmAfGmCfAmUfAdT; antisense dTfAmUfGmCfUmUfUmGfCmUfUmCfCmGfGmCfAmUdT*dT; siRNA) [compound 2304]”, the “Relative Rluc-Hif2α” value (0.1 nM RNAi trigger) worked out at 0.528 ± 0.116 and the “Relative Rluc-Hif2α” value (1 nM RNAi trigger) was found to be 0.302 ± 0.025.
The like results for “2305 (sense fGmCfCmGfGmAfAmGfCmAfAmAfGmCfAmUfCmCfAdT; antisense dTfGmGfAmUfGmCfUmUfUmGfCmUfUmCfCmGfGmCdT*dT; siRNA) [compound 2305]” were, in that order, 0.961 ± 0.120 and 0.992 ± 0.217.
On to “2306 (sense fCmCfCmCfCmAfGmAfUmCfCmAfCmCfAmUfUmAfAdT; antisense dTfUmAfAmUfGmGfUmGfGmAfUmCfUmGfGmGfGmGdT*dT; siRNA) [compound 2306]”, for which the “Relative Rluc-Hif2α” value was 0.596 ± 0.038 (0.1 nM RNAi trigger) and 0.613 ± 0.031 (1 nM RNAi trigger).
Taken in the same sequence, the figures for “2307 (sense fAmGfAmUfCmCfAmCfCmAfUmUfAmCfAmUfUmUfAdT; antisense dTfAmAfAmUfGmUfAmAfUmGfGmUfGmGfAmUfCmUdT*dT; siRNA) [compound 2307]” were 0.800 ± 0.248 and 0.702 ± 0.142.
As to “2308 (sense fAmUfUmUfUmGfGmGfCmCfCmAfCmAfAmAfGmUfAdT; antisense dTfAmCfUmUfUmGfUmGfGmGfCmCfCmAfAmAfAmUdT*dT; siRNA) [compound 2308]”, the “Relative Rluc-Hif2α” value reads like this: (0.1 nM RNAi trigger) 0.799 ± 0.084; (1 nM RNAi trigger) 0.998 ± 0.059.
The like results for “2309 (sense fUmUfUmUfGmGfGmCfCmCfAmCfAmAfAmGfUmGfAdT; antisense dTfCmAfCmUfUmUfGmUfGmGfGmCfCmCfAmAfAmAdT*dT; siRNA) [compound 2309]” were, in that order, 0.823 ± 0.096 and 1.081 ± 0.135.
The like results for “2310 (sense fUmUfUmGfGmGfCmCfCmAfCmAfAmAfGmUfGmGfAdT; antisense dTfCmCfAmCfUmUfUmGfUmGfGmGfCmCfCmAfAmAdT*dT; siRNA) [compound 2310]” were, in that order, 0.785 ± 0.122 and 0.923 ± 0.101.
For the substance “2311 (sense fCmCfAmCfAmAfAmGfUmGfGmGfCmCfGmUfCmGfAdT; antisense dTfCmGfAmCfGmGfCmCfCmAfCmUfUmUfGmUfGmGdT*dT; siRNA) [compound 2311]”, the “Relative Rluc-Hif2α” value reads like this: (0.1 nM RNAi trigger) 0.888 ± 0.051; (1 nM RNAi trigger) 0.841 ± 0.130.
Taken in the same sequence, the figures for “2312 (sense fCmAfCmAfAmAfGmUfGmGfGmCfCmGfUmCfGmGfAdT; antisense dTfCmCfGmAfCmGfGmCfCmCfAmCfUmUfUmGfUmGdT*dT; siRNA) [compound 2312]” were 0.899 ± 0.124 and 0.725 ± 0.173.
The like results for “2313 (sense fAmGfUmGfGmGfCmCfGmUfCmGfGmGfGmAfUmCfAdT; antisense dTfGmAfUmCfCmCfCmGfAmCfGmGfCmCfCmAfCmUdT*dT; siRNA) [compound 2313]” were, in that order, 0.853 ± 0.133 and 0.886 ± 0.243.
On to “2314 (sense fAmAfAmGfGmGfUmUfUmUfGmGfGmGfCmUfCmGfAdT; antisense dTfCmGfAmGfCmCfCmCfAmAfAmAfCmCfCmUfUmUdT*dT; siRNA) [compound 2314]”, for which the “Relative Rluc-Hif2α” value by setting is: (0.1 nM RNAi trigger) 0.692 ± 0.141; (1 nM RNAi trigger) 0.920 ± 0.150.
The like results for “2315 (sense fGmGfCmUfCmGfAmGfGmCfCmCfAmGfAmCfGmUfAdT; antisense dTfAmCfGmUfCmUfGmGfGmCfCmUfCmGfAmGfCmCdT*dT; siRNA) [compound 2315]” were, in that order, 0.781 ± 0.206 and 0.876 ± 0.099.
In the case of “2316 (sense fGmCfUmCfGmAfGmGfCmCfCmAfGmAfCmGfUmGfAdT; antisense dTfCmAfCmGfUmCfUmGfGmGfCmCfUmCfGmAfGmCdT*dT; siRNA) [compound 2316]”, the “Relative Rluc-Hif2α” value amounted to 0.797 ± 0.211 (0.1 nM RNAi trigger) and 0.579 ± 0.055 (1 nM RNAi trigger).
Consider “2317 (sense fCmUfCmGfAmGfGmCfCmCfAmGfAmCfGmUfGmCfAdT; antisense dTfGmCfAmCfGmUfCmUfGmGfGmCfCmUfCmGfAmGdT*dT; siRNA) [compound 2317]”, for which the “Relative Rluc-Hif2α” value by setting is: (0.1 nM RNAi trigger) 0.842 ± 0.239; (1 nM RNAi trigger) 0.843 ± 0.157.
On to “2318 (sense fGmGfUmAfGmCfCmCfUmCfUmCfCmAfAmCfAmAfAdT; antisense dTfUmUfGmUfUmGfGmAfGmAfGmGfGmCfUmAfCmCdT*dT; siRNA) [compound 2318]”, for which the “Relative Rluc-Hif2α” value reads like this: (0.1 nM RNAi trigger) 0.885 ± 0.370; (1 nM RNAi trigger) 0.780 ± 0.103.
Consider “2319 (sense fCmUfUmUfGmAfUmGfCmCfGmGfAmCfAmAfGmCfAdT; antisense dTfGmCfUmUfGmUfCmCfGmGfCmAfUmCfAmAfAmGdT*dT; siRNA) [compound 2319]”, for which the “Relative Rluc-Hif2α” value by setting is: (0.1 nM RNAi trigger) 0.454 ± 0.101; (1 nM RNAi trigger) 0.234 ± 0.055.
The like results for “2320 (sense fUmUfUmGfAmUfGmCfCmGfGmAfCmAfAmGfCmCfAdT; antisense dTfGmGfCmUfUmGfUmCfCmGfGmCfAmUfCmAfAmAdT*dT; siRNA) [compound 2320]” were, in that order, 0.770 ± 0.312 and 0.486 ± 0.059.
